Reference: patent US20060052357A1, “Organometallic anti-tumour agent” (priority 2001, published 2006)
Marks after values point to notes of the source that are not given here.

Experiments:
C-180 sarcoma = experiment: Antitumor activity for C-180 sarcoma, intraperitoneal; type: in vivo; details: 5 mg/kg intraperitoneal
Protocol: 4. Antitumor Activity for C-180 Sarcoma
The results of series of experiments in which the stated active ingredient was administered intra-peritoneally in the stated dosage in physiological saline solution are shown in table 5 below.

S-180 sarcoma tumor = experiment: S-180 sarcoma in white crossbred mice (Example 7); type: in vivo; details: day 21
Protocol: After transplantation of the S-180 sarcoma tumor into white crossbred mice, the animals received the substance MOC.melphalan by intraabdominal administration in a dosage of 1 mg/kg in 0.3 ml of 10% DMSO solution on days 3, 5 and 9. The animals were sacrificed on day 21 of the investigation and underwent histological, morphological examination (table 11).
(§1) After transplantation of the S-180 sarcoma tumor into white crossbred mice, the animals received MOC.melphalan and melphalan by intraabdominal administration in a dosage of 5 mg/kg in 0.3 ml of 10% DMSO solution on days 3, 5, 7 and 9. The animals were sacrificed on day 21 of the investigation and underwent histological, morphological examination (table 12).
as §1, with “2, 4, 6, 8” for “3, 5, 7”, “10.” for “9.”, “13).” for “12).”

AKATON tumor [1] = experiment: AKATON tumor, MOC.tegafur and tegafur (Example 11, Exp. I, II); type: in vivo, mice
Protocol: 48 hours after transplantation of the AKATON tumor (adenocarcinoma of the small bowel), the mice of the Balb line received the substance MOC.tegafur in a dosage of 5 mg/kg of body weight by intraabdominal administration in 0.3 ml of a physiological solution. This took place on days 3, 5, 7 and 9. The animals were sacrificed on day 21 of the investigation.
48 hours after transplantation of the AKATON tumor, the mice of the Balb line received the substance MOC.tegafur by intravenous administration in 0.3 ml of a physiological solution. This took place on days 3, 5, 7 and 9. The animals were sacrificed on day 21 of the investigation.

sarcoma-180 tumor [2] = experiment: Sarcoma-180 tumor, MOC.tegafur and tegafur (Example 11, Exp. III); type: in vivo, mice; details: for Tumor weight: control 3.9
Protocol: 48 hours after transplantation of the sarcoma-180 tumor, mice of the Balb line received the substance MOC.tegafur by intraabdominal administration in 0.3 ml of a physiological solution. Administration took place on days 3, 5 and 9. The animals were sacrificed on day 21 of the investigation.

[3] = in vivo; cited from earlier work
AKATON tumor [4] = experiment: AKATON tumor transplanted after administration of MOC.tegafur; type: in vivo; details: 5 mg/kg i.v. 4 days in succession before transplantation
Protocol: The product was administered intravenously in a physiological solution of 0.3 ml on 4 days in succession (table 20). The AKATON tumor was then transplanted.

sarcoma-180 tumor [5] = experiment: Sarcoma-180 tumor tissue changes and mitoses (Example 12); type: in vivo, mice; details: 5 mg/kg intraabdominal days 3, 5, 9
Protocol: The sarcoma-180 tumor was transplanted with a weight of 20 to 22 g into sexually mature crossbred mice. 48 hours after the transplantation of the sarcoma-180 tumor, the mice received the substance MOC.tegafur in a dosage of 5 mg/kg of body weight by intraabdominal administration in 0.9% NaCl solution. Administration took place on days 3, 5 and 9.
On day 21, the mice were sacrificed by decapitation and the tumor tissue was removed for histological examination. The antitumor activity of MOC.tegafur was provisionally determined.
In the investigation, the activity of the tumor tissue was determined in animals which received the product MOC.tegafur and in untreated animals in the control. The number of mitoses and the mitosis index was calculated. The average number of mitoses in the investigation group was 2.55% and in the control animal group was 11.2%. The mitosis index in these animal groups was 0.9 and 4.75. On examination under the microscope, an increase in the number of pathological metaphases and anaphases was observed.

B-16 melanoma tumor = experiment: B-16 melanoma tumor, MOC.melphalan and MOC.tegafur (Example 13); type: in vivo, mice; details: Dose 5 mg/kg (table), day 16
Protocol: MOC.tegafur was administered in a physiological solution. The animals in the control group likewise received administration of the solutions (without products). On day 16, the mice were sacrificed by decapitation, tumor tissue was removed for histological examination, and the tumor was investigated for antitumor activity (table 23). The tumors were fixed with 10% formalin, which was followed by embedding in paraffin. The section thickness of 5 μm were stained with hematoxylin-eosinome. The microscopy was carried out with a Leica Galen microscope.

[6] = tested on: tumor cell cultures (KML); experiment: Suppression of cell proliferation in tumor cell cultures (KML); type: cell-based, mice; details: incubation 24 hours
Protocol: The effect of the substances MOC.melphalan and MOC.tegafur of the invention on the proliferative activity, morphology and protein synthesis was investigated on tumor cell cultures (KML). This took place with the mice separated out of the melanoma-16 line. 80 000 cells/ml were distributed in 3 ml of DMEM with the addition of embryonic calf serum, 200 μ/mol of glutamine and antibiotic. After cultivation of the cells at a temperature of 37° C. for 24 hours (logarithmic cell growth phase), the MOC substances were added in the concentration of 10 and 100 μg/ml. After incubation for 24 hours, the number of live cells was determined. In parallel, the fixed specimens of the cells were prepared for morphological analysis.

[7] = tested on: tumor cell cultures (KML); experiment: Protein synthesis: inclusion of 3H-amino acids in tumor cell cultures; type: cell-based, mice; details: 50 μg/ml, incubation 24 hours
Protocol: The effect of the substances on protein synthesis is determined with the aid of the suppression stage through the inclusion of radioactive precursors of amino acids (totaled mixture of ^3H-amino acids). 1 million cells in a “log phase” were selected for this. The complexes were introduced in a dosage of 50 μg/ml and, in parallel, the amino acids with an activity of 10 mCi/ml were introduced into 10 ml bottles. After incubation for 24 hours, the cells were washed out from the cultivation nutrient medium, and a lysis (disruption) was carried out. The radioactivity of the proteins was determined in a […] (table 25).

[8] = Solubility and stability in air
[9] = 3 mg/kg intraabdominal days 3, 5, 9, day 21
[10] = 5 mg/kg intraabdominal days 3, 5, 9, day 21

Compound: N[C@@H](Cc1ccc(N(CCCl)CCCl)cc1)C(=O)O [Melphalan, 4-[bis(2-chloroethyl)amino]-L-phenylalanine, reference compound]
- % inhibition (C-180 sarcoma): 49%
- Mass of the tumor (C-180 sarcoma; control 2.8): 2.4 ± 1.1 g
- Percentage inhibition (S-180 sarcoma tumor; 5 mg/kg intraabdominal days 2, 4, 6, 8, 10): 38%
- Average tumor mass (S-180 sarcoma tumor; 5 mg/kg intraabdominal days 2, 4, 6, 8, 10, control 3.9 ± 0.5): 2.4 ± 1.1 g
- Percentage inhibition (S-180 sarcoma tumor; 5 mg/kg intraabdominal days 3, 5, 7, 9): 49%
- Average tumor mass (S-180 sarcoma tumor; 5 mg/kg intraabdominal days 3, 5, 7, 9, control 2.8): 1.4 g

Compound: O=c1[nH]c(=O)n(C2CCCO2)cc1F (stereo not drawn) [Tegafur, 5-fluoro-1-(tetrahydro-2-furyl)uracil, reference compound]
- Percent inhibition (AKATON tumor [1]; 250 mg/kg intravenous four times): 51%
- Tumor weight (AKATON tumor [1]; 250 mg/kg intravenous four times, control 4.3): 2.1 g
- Percent inhibition (AKATON tumor [1]; 250 mg/kg, four times, intraabdominal experiment): 54.5%
- Tumor weight (AKATON tumor [1]; 250 mg/kg, four times, intraabdominal experiment, control 4.4): 1.95 g
- Percent inhibition (sarcoma-180 tumor [2]; 250 mg/kg three times): 20.5%
- Tumor weight (sarcoma-180 tumor [2]; 250 mg/kg three times): 3.1 g
- LD50 [3]: 650 mg/kg

Compound: Cu(C5H7O2)2.C8H9O3N2F [MOC.tegafur]
- Percent inhibition (AKATON tumor [1]; 5 mg/kg intraabdominal days 3, 5, 7, 9, day 21): 86%
- Tumor weight (AKATON tumor [1]; 5 mg/kg intraabdominal days 3, 5, 7, 9, day 21, control 4.4): 0.61 g
- Percent inhibition (AKATON tumor [1]; 5 mg/kg intravenous days 3, 5, 7, 9, day 21): 80%
- Tumor weight (AKATON tumor [1]; 5 mg/kg intravenous days 3, 5, 7, 9, day 21, control 4.3): 0.86 g
- Percent inhibition (sarcoma-180 tumor [2]; [9]): 89%
- Tumor weight (sarcoma-180 tumor [2]; [9]): 0.43 g
- Percent inhibition (sarcoma-180 tumor [2]; [10]): 95%
- Tumor weight (sarcoma-180 tumor [2]; [10]): 0.195 g
- Percent inhibition of tumor volume (AKATON tumor [4]): 61.3* %
- Percent inhibition of tumor weight (AKATON tumor [4]): 50* %
- Tumor weight (AKATON tumor [4]; control 4.46): 2.20 g
- Size of the tumor (AKATON tumor [4]; control 7.90): 3.06 cm^3
- mitosis index (sarcoma-180 tumor [5]; control 4.75): 0.9
- average number of mitoses (sarcoma-180 tumor [5]; control 11.2%): 2.55%
- percent inhibition of tumor proliferation (sarcoma-180 tumor [5]; day 21, provisionally determined): 96.4%
- MI (mitosis index) (B-16 melanoma tumor; control 4.22): 0.86
- Percent inhibition (B-16 melanoma tumor; intraabdominal days 3, 5, 9): 65.66%
- Tumor weight (B-16 melanoma tumor; intraabdominal days 3, 5, 9, control 3.22): 1.13 g
- Suppression of growth cells ([6]; 10 μg/ml): 32%
- Suppression of growth cells ([6]; 100 μg/ml): 100%
- Suppression of amino acid inclusion [7]: 77%
- solubility ([8]; in ether and chloroform): insoluble
- solubility ([8]; in water, physiological solution, methanol, ethanol, DMSO and Twin-80): readily soluble
